Experimental data reported in the supplement of paper PMC10307832.

How the values were obtained:
Experiment in all cases: relative viability (nuclei count vs DMSO), 5 days (fraction); higher = more cells survive
NCI-H650 = test system: NCI-H650
Outline: (§1)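 Lung cancer cell lines in 1536-well plates were dosed by pin tool the day after seeding, either with one drug alone or with a fixed anchor-drug dose plus five library-drug doses (not always all listed) in √10 steps. After 5 days, cells were fixed and their nuclei stained in one step (final 0.05% Triton X-100, 1% formaldehyde, 1 ug/ml Hoechst), then counted on 4× images. Relative viability is the nuclei count in treated wells divided by that in vehicle wells. Values are medians of duplicate plates.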

NCI-H1915 = test system: NCI-H1915
Outline: as §1

201T = test system: 201T
Outline: as §1

LCLC-97TM1 = test system: LCLC-97TM1
Outline: as §1

NCI-H3122 = test system: NCI-H3122
Outline: as §1

NCI-H1944 = test system: NCI-H1944
Outline: as §1

NCI-H1563 = test system: NCI-H1563
Outline: as §1

NCI-H838 = test system: NCI-H838
Outline: as §1

SW 1573 = test system: SW 1573
Outline: as §1

NCI-H1651 = test system: NCI-H1651
Outline: as §1

NCI-H2347 = test system: NCI-H2347
Outline: as §1

BEN = test system: BEN
Outline: as §1

HOP-62 = test system: HOP-62
Outline: as §1

NCI-H1395 = test system: NCI-H1395
Outline: as §1

HCC-78 = test system: HCC-78
Outline: as §1

LOU-NH91 = test system: LOU-NH91
Outline: as §1

NCI-H2126 = test system: NCI-H2126
Outline: as §1

NCI-H1793 = test system: NCI-H1793
Outline: as §1

SK-LU-1 = test system: SK-LU-1
Outline: as §1

NCI-H1355 = test system: NCI-H1355
Outline: as §1

CAL-12T = test system: CAL-12T
Outline: as §1

NCI-H322M = test system: NCI-H322M
Outline: as §1

Q: Which relative viability (NCI-H650; first compound 0.253 µM) does the source give for Nc1cccc2c1CN(C1CCC(=O)NC1=O)C2=O (centres undefined) [Lenalidomide] + CS(=O)(=O)CCNCc1ccc(-c2ccc3ncnc(Nc4ccc(OCc5cccc(F)c5)c(Cl)c4)c3c2)o1 [Lapatinib] (partner 2 µM) here?
A: 1.04

Q: And the relative viability (NCI-H650; first compound 2.53 µM)?
A: 1.01

Q: And the relative viability (NCI-H650; first compound 8 µM)?
A: 0.804

Q: And the relative viability (NCI-H1915; first compound 0.253 µM)?
A: 0.979

Q: And the relative viability (NCI-H1915; first compound 0.8 µM)?
A: 0.807

Q: What about the relative viability (NCI-H1915; first compound 2.53 µM) of the same compound?
A: 1.11

Q: And the relative viability (NCI-H1915; first compound 8 µM)?
A: 1.02

Q: What about the relative viability (201T; first compound 0.253 µM) of the same compound?
A: 1.07

Q: What about the relative viability (201T; first compound 0.8 µM) of the same compound?
A: 0.815

Q: And the relative viability (201T; first compound 2.53 µM)?
A: 1.02

Q: And the relative viability (201T; first compound 8 µM)?
A: 0.954

Q: And the relative viability (LCLC-97TM1; first compound 0.8 µM)?
A: 0.602

Q: What about the relative viability (LCLC-97TM1; first compound 2.53 µM) of the same compound?
A: 1.09

Q: What about the relative viability (LCLC-97TM1; first compound 8 µM) of the same compound?
A: 0.623

Q: What about the relative viability (NCI-H3122; first compound 0.253 µM) of the same compound?
A: 1.04

Q: What about the relative viability (NCI-H3122; first compound 0.8 µM) of the same compound?
A: 1.03

Q: And the relative viability (NCI-H3122; first compound 2.53 µM)?
A: 0.974

Q: And the relative viability (NCI-H3122; first compound 8 µM)?
A: 1.13

Q: What about the relative viability (NCI-H1944; first compound 0.253 µM) of the same compound?
A: 0.932

Q: What about the relative viability (NCI-H1944; first compound 0.8 µM) of the same compound?
A: 0.59

Q: And the relative viability (NCI-H1944; first compound 2.53 µM)?
A: 0.754

Q: What about the relative viability (NCI-H1944; first compound 8 µM) of the same compound?
A: 0.602

Q: And the relative viability (NCI-H1563; first compound 0.253 µM)?
A: 0.919

Q: What about the relative viability (NCI-H1563; first compound 0.8 µM) of the same compound?
A: 0.852

Q: What about the relative viability (NCI-H1563; first compound 2.53 µM) of the same compound?
A: 0.979

Q: What about the relative viability (NCI-H1563; first compound 8 µM) of the same compound?
A: 0.763

Q: And the relative viability (NCI-H838; first compound 0.253 µM)?
A: 0.807

Q: And the relative viability (NCI-H838; first compound 0.8 µM)?
A: 0.956

Q: And the relative viability (NCI-H838; first compound 2.53 µM)?
A: 1.34

Q: And the relative viability (NCI-H838; first compound 8 µM)?
A: 0.816

Q: What about the relative viability (SW 1573; first compound 0.253 µM) of the same compound?
A: 1.12

Q: What about the relative viability (SW 1573; first compound 0.8 µM) of the same compound?
A: 1.08

Q: What about the relative viability (SW 1573; first compound 2.53 µM) of the same compound?
A: 1.12

Q: And the relative viability (SW 1573; first compound 8 µM)?
A: 0.992

Q: And the relative viability (NCI-H1651; first compound 0.253 µM)?
A: 0.825

Q: And the relative viability (NCI-H1651; first compound 0.8 µM)?
A: 0.867

Q: And the relative viability (NCI-H1651; first compound 2.53 µM)?
A: 1.25

Q: What about the relative viability (NCI-H1651; first compound 8 µM) of the same compound?
A: 0.88

Q: What about the relative viability (NCI-H2347; first compound 0.253 µM) of the same compound?
A: 0.928

Q: What about the relative viability (NCI-H2347; first compound 0.8 µM) of the same compound?
A: 0.797

Q: And the relative viability (NCI-H2347; first compound 2.53 µM)?
A: 0.894

Q: And the relative viability (NCI-H2347; first compound 8 µM)?
A: 0.802

Q: What about the relative viability (BEN; first compound 0.253 µM) of the same compound?
A: 0.898

Q: And the relative viability (BEN; first compound 0.8 µM)?
A: 0.587

Q: And the relative viability (BEN; first compound 2.53 µM)?
A: 0.918

Q: And the relative viability (BEN; first compound 8 µM)?
A: 0.489

Q: And the relative viability (HOP-62; first compound 0.253 µM)?
A: 1

Q: And the relative viability (HOP-62; first compound 0.8 µM)?
A: 0.578

Q: What about the relative viability (HOP-62; first compound 2.53 µM) of the same compound?
A: 1.26

Q: And the relative viability (HOP-62; first compound 8 µM)?
A: 0.924

Q: And the relative viability (NCI-H1395; first compound 0.253 µM)?
A: 1.1

Q: And the relative viability (NCI-H1395; first compound 2.53 µM)?
A: 0.948

Q: And the relative viability (NCI-H1395; first compound 8 µM)?
A: 0.845

Q: And the relative viability (HCC-78; first compound 0.253 µM)?
A: 0.811

Q: And the relative viability (HCC-78; first compound 0.8 µM)?
A: 0.367

Q: What about the relative viability (HCC-78; first compound 2.53 µM) of the same compound?
A: 0.245

Q: What about the relative viability (HCC-78; first compound 8 µM) of the same compound?
A: 0.271

Q: And the relative viability (LOU-NH91; first compound 0.253 µM)?
A: 0.771

Q: And the relative viability (LOU-NH91; first compound 0.8 µM)?
A: 0.675

Q: What about the relative viability (LOU-NH91; first compound 2.53 µM) of the same compound?
A: 0.758

Q: And the relative viability (LOU-NH91; first compound 8 µM)?
A: 0.579

Q: What about the relative viability (NCI-H2126; first compound 0.253 µM) of the same compound?
A: 0.743

Q: And the relative viability (NCI-H2126; first compound 0.8 µM)?
A: 0.537

Q: What about the relative viability (NCI-H2126; first compound 2.53 µM) of the same compound?
A: 0.733

Q: And the relative viability (NCI-H2126; first compound 8 µM)?
A: 0.584

Q: And the relative viability (NCI-H1793; first compound 0.253 µM)?
A: 0.675

Q: And the relative viability (NCI-H1793; first compound 0.8 µM)?
A: 0.483

Q: And the relative viability (NCI-H1793; first compound 2.53 µM)?
A: 1.07

Q: And the relative viability (NCI-H1793; first compound 8 µM)?
A: 0.454

Q: And the relative viability (SK-LU-1; first compound 0.253 µM)?
A: 0.804

Q: And the relative viability (SK-LU-1; first compound 0.8 µM)?
A: 0.891

Q: What about the relative viability (SK-LU-1; first compound 2.53 µM) of the same compound?
A: 1.11

Q: What about the relative viability (SK-LU-1; first compound 8 µM) of the same compound?
A: 0.889

Q: And the relative viability (NCI-H1355; first compound 0.253 µM)?
A: 1

Q: What about the relative viability (NCI-H1355; first compound 0.8 µM) of the same compound?
A: 0.623

Q: What about the relative viability (NCI-H1355; first compound 2.53 µM) of the same compound?
A: 0.963

Q: And the relative viability (NCI-H1355; first compound 8 µM)?
A: 0.606

Q: And the relative viability (CAL-12T; first compound 0.253 µM)?
A: 0.602

Q: What about the relative viability (CAL-12T; first compound 2.53 µM) of the same compound?
A: 0.801

Q: What about the relative viability (CAL-12T; first compound 8 µM) of the same compound?
A: 0.403

Q: And the relative viability (NCI-H322M; first compound 0.253 µM)?
A: 0.648

Q: What about the relative viability (NCI-H322M; first compound 0.8 µM) of the same compound?
A: 0.629

Q: What about the relative viability (NCI-H322M; first compound 2.53 µM) of the same compound?
A: 0.592

Q: And the relative viability (NCI-H322M; first compound 8 µM)?
A: 0.635
